Data set [1] deals with AGS human gastric adenocarcinoma cells. The experiment in a line: MTT reduction cytotoxicity assay, 72 h drug exposure, AGS. The format is cell-based. Conditions: human gastric adenocarcinoma cell line, 72 h exposure, average of six determinations, read-out: IC50 ± SEM, AGS. For orientation: Tetrazolium dyes change colour on reduction, which living cells bring about.
The subject of data set [2] is MRC-5 normal human lung fibroblasts. The experiment in a line: cells. The conditions noted are these: MRC5, 72 h, read-out: IC50 ± SEM, MRC-5.
Experimental: (§1) Cytotoxic activities of the compounds are expressed in terms of IC50. Etoposide, a clinically used anticancer agent, was taken as a positive control.
(§2) Media were supplemented with 10% heat-inactivated fetal bovine serum (FBS), 100 IU/mL penicillin and 100 μg/mL streptomycin and cell cultures were kept in a humidified incubator with 5% CO2 in air at 37 °C. For the cytotoxicity experiments, cells were seeded into 96-well plates at a density of 50,000 cells/mL. After reaching confluence, cells were incubated for three days with compounds at varied concentrations ranging from 0 up to 100 μM while untreated cells (medium containing 1% DMSO) were used as controls. Cytotoxicity was assessed using the MTT (3-(4,5-dimethylthiazol-2-yl)-2,5-diphenyltetrazolium bromide) reduction assay. […] Values were the means of six replicates for each concentration and transformed to percentage of controls.
Data set [3] relates to J82 human bladder carcinoma cells. The experiment in a line: MTT reduction cytotoxicity assay, 72 h drug exposure, J82. The format is cell-based. Conditions: human bladder carcinoma cell line, 72 h exposure, average of six determinations, read-out: IC50 ± SEM, J82.
Data set [4] relates to SK-MES-1 human lung cancer cells. The experiment in a line: MTT reduction cytotoxicity assay, 72 h drug exposure, SK-MES-1. The format is cell-based. The conditions noted are these: 72 h exposure, average of six determinations, read-out: IC50 ± SEM, SK-MES-1.
The nature of data set [5]: MTT reduction cytotoxicity assay, 72 h drug exposure, cell line panel of Table 3. The format is cell-based. The conditions noted are these: human, summary range over the cell lines of Table 3, 72 h exposure, read-out: cytotoxic activities, range of IC50 over Table 3. Here is the method: Finally, HL-60 cells were grown in RPMI medium.
Data set [6] relates to MRC-5 normal human lung fibroblasts. The conditions noted are these: for IC50: read-out: IC50 ± SEM, MRC-5, normal human lung fibroblasts, 72 h exposure, MTT, average of six determinations.
Experimental: as §1, §2
Setting [7] is: SK-MES-1, human lung cancer cell line.

Like-named read-outs stand apart in the source and are kept apart here.

What is called melting point is the temperature, or range, at which the solid turns liquid. In turn, `COC(=O)C1=C(C)N(CCO)C(O)(c2ccccc2)C2=C1C(=O)c1ccccc1C2=O` (stereo not shown) [Compound 5b, Methyl 1-hydroxy-2-(2-hydroxyethyl)-3-methyl-5,10-dioxo-1-phenyl-1,2,5,10-tetrahydrobenzo[g] isoquinoline-4-carboxylate] returned a melting point of 236.5 to 238.5 °C.
A word on the IC50: it is the concentration that inhibits the measured activity by half. For the molecule `COc1cc([C@@H]2c3cc4c(cc3[C@@H](O[C@@H]3O[C@@H]5CO[C@@H](C)O[C@H]5[C@H](O)[C@H]3O)[C@H]3COC(=O)[C@H]23)OCO4)cc(OC)c1O` [Ref., etoposide, reference compound], the IC50 in data set [1] was 0.4 µM; in data set [2], 2.2 ± 0.1 µM; in data set [3], 3.3 ± 0.2 µM; in data set [4] (setting [7]), 2.9 ± 0.2 µM.
With `CCCCCC(=O)C1=C(/C(C(=O)OC)=C(\C)N[C@@H](CC(C)C)C(=O)OC)C(=O)c2ccccc2C1=O` [Compound 13, Methyl (Z)-[3-(3-hexanoyl-1,4-dioxo-1,4-dihydronaphthalen-2-yl)-4-methoxy-4-oxobut-2-en-2-yl]-L-leucinate], the concentration for half-maximal inhibition (IC50) in data set [1] was 17 ± 1.1 µM; in data set [2], 24.9 ± 0.7 µM; in data set [3] it was 23.5 ± 1.6 µM; in data set [4] (setting [7]), 21.6 ± 1.3 µM. Further, the IC50 at 72 h in data set [5] lay within 4.5 to 53.4 µM.
As for “Methyl (S,Z)-3-[(3-(1H-indol-3-yl)-1-methoxy-1-oxopropan-2-yl)amino]-2-(3-hexanoyl-1,4-dioxo-1,4-dihydronaphthalen-2-yl)but-2-enoate [Compound 14]”, the IC50 in data set [1] is 9.3 ± 0.6 µM; in data set [3], 4.5 ± 0.2 µM; in data set [4] (human lung cancer cell line), 5.5 ± 0.2 µM; in data set [6] it was 22.1 ± 1.6 µM. Further, the “cytotoxicity relative to etoposide on normal human lung fibroblasts cells” value in data set [6] is recorded as “ten times lower”.
For “Methyl (S,Z)-3-[(3-(1H-indol-3-yl)-1-methoxy-1-oxopropan-2-yl)amino]-2-(3-benzoyl-1,4-dioxo-1,4-dihydronaphthalen-2-yl)-but-2-enoate [Compound 11]”, the IC50 stood at 10.1 ± 0.1 µM in data set [1], 21.4 ± 0.8 µM in data set [3], 18.9 ± 0.5 µM in data set [4] (human lung cancer cell line) and 13 ± 0.8 µM in data set [6].
As for “Methyl (R,Z)-2-(3-butyryl-1,4-dioxo-1,4-dihydronaphthalen-2-yl)-3-[(1-methoxy-1-oxo-3-phenylpropan-2-yl)amino]-but-2-enoate [Compound 12]”, the IC50 in data set [1] is 12.8 ± 0.7 µM; in data set [3] it was 14 ± 0.6 µM; in data set [4] (human lung cancer cell line) it was 15.9 ± 0.9 µM; in data set [6], 21.8 ± 1.5 µM.
`COC(=O)/C(C1=C(C(=O)c2ccccc2)C(=O)c2ccccc2C1=O)=C(/C)N[C@@H](C)C(=O)OC` [Compound 6, Methyl (S,Z)-2-(3-benzoyl-1,4-dioxo-1,4-dihydronaphthalen-2-yl)-3-[(1-methoxy-1-oxopropan-2-yl)amino]-but-2-enoate] gave a melting point of 217 to 218 °C. The IC50 in data set [1] is 52.7 ± 3.7 µM. For the same molecule, the IC50 in data set [2] turned out to be 58 ± 4.1 µM. In data set [3], the IC50 came to 37.1 ± 2.2 µM. In data set [4] (setting [7]), the IC50 came to 47.8 ± 3.3 µM. For the same molecule, the IC50 at 72 h in data set [5] lay in the range of 4.5 to 53.4 µM.
On to `COC(=O)C1=C(C)N(CCO)C(C)(O)C2=C1C(=O)c1ccccc1C2=O` (stereo not shown) [Compound 5a, Methyl 1-hydroxy-2-(2-hydroxyethyl)-1,3-dimethyl-5,10-dioxo-1,2,5,10-tetrahydrobenzo[g]isoquinoline-4-carboxylate], for which the melting point is 215 to 217 °C.
With “Methyl (R,Z)-2-(3-benzoyl-1,4-dioxo-1,4-dihydronaphthalen-2-yl)-3-[(1-methoxy-1-oxo-3-phenylpropan-2-yl)amino]-but-2-enoate [Compound 10]”, the IC50 in data set [1] was 30.7 ± 1.5 µM; in data set [3], 23 ± 0.7 µM; in data set [4] (human lung cancer cell line), 34.2 ± 2.3 µM; in data set [6], 46.7 ± 2.9 µM.
As to `COC(=O)/C(C1=C(C(=O)c2ccccc2)C(=O)c2ccccc2C1=O)=C(/C)N[C@H](C)C(=O)OC` [Compound 7, Methyl (R,Z)-2-(3-benzoyl-1,4-dioxo-1,4-dihydronaphthalen-2-yl)-3-[(1-methoxy-1-oxopropan-2-yl)amino]-but-2-enoate], the IC50 was 20.5 ± 1.1 µM in data set [1], 17.4 ± 0.7 µM in data set [2], 35.6 ± 1.4 µM in data set [3] and 53.4 ± 4.3 µM in data set [4] (setting [7]). Moreover, in data set [5], the IC50 at 72 h lay within 4.5 to 53.4 µM.
Take “Methyl (S,Z)-2-(3-benzoyl-1,4-dioxo-1,4-dihydronaphthalen-2-yl)-3-[(1-methoxy-1-oxo-3-phenylpropan-2-yl)amino]-but-2-enoate [Compound 9]”: the 50% inhibitory concentration (IC50) in data set [1] came out at 19.3 ± 1.5 µM; in data set [3], 22 ± 1.1 µM; in data set [4] (human lung cancer cell line) it was 39.3 ± 1.6 µM; in data set [6] it was 33.3 ± 2.2 µM.
Regarding `COC(=O)/C(C1=C(C(=O)c2ccccc2)C(=O)c2ccccc2C1=O)=C(/C)N[C@@H](CC(C)C)C(=O)OC` [Compound 8, Methyl (Z)-[3-(3-benzoyl-1,4-dioxo-1,4-dihydronaphthalen-2-yl)-4-methoxy-4-oxobut-2-en-2-yl]-L-leucinate], the melting point is 222.5 to 224.5 °C. The IC50 in data set [1] stood at 26.9 ± 1.5 µM. The IC50 in data set [2] amounted to 26.6 ± 1.3 µM. The concentration for half-maximal inhibition (IC50) in data set [3] turned out to be 12.9 ± 0.9 µM. Besides, the IC50 in data set [4] (setting [7]) was determined as 34.5 ± 1.7 µM. Further, the IC50 at 72 h in data set [5] is 4.5 to 53.4 µM.

Values taken from publication PMC6149812, “Access to New Cytotoxic Quinone-Amino Acid Conjugates Linked through A Vinylic Spacer from 2-Acylnaphthoquinones and Methyl 3-Aminocrotonate” (Molecules : A Journal of Synthetic Chemistry and Natural …, 2017).
